Measured values published in patent US9820951B2, “Pulmonary disease treatment and diagnosis based on Arhgef1” (NATIONAL JEWISH HEALTH, A NON-PROFIT ORGANIZATION, priority 2011, dated 2017).

How the values were obtained:
MMP9 [1] = experiment: MMP9 activity by zymography in conditioned media of human peripheral blood monocytes cultured on fibronectin; format: cell-based
Method: (§1) FIG. 5. TP-induced MMP9 production is only partially dependent on COX activity. A) PEMs were cultured on fibronectin for 24 hours with 5% FCS, washed then treated with different concentration of aspirin or 1.6 μM PTXA2 at for an additional 24 hours without FCS. MMP9 activity was determined by zymography from supernatants of wild type (open) or Arhgef1−/− (filled) macrophages. Activity was normalized to activity generated from cells cultured on fibronectin without treatment. B) MMP9 activity in conditioned media from peripheral blood monocytes cultured as described in panel A. Data represents mean±SE (n=3 independent donors).
Tissue-culture 96-well plates (Costar high binding catalogue number 3590) were coated with 10 μg/ml of murine fibronectin (Molecular Innovations, Nori, Minn.; catalogue number MFBN) or human fibronectin (Molecular Innovations; catalogue number HFBN) in DPBS without Ca^2+ or Mg^2+ (Mediatech, Inc., Manassas, Va.) for 2 h at room temperature. […] PGE2 and TXB2 were measured in conditioned medium by ELISA according to the manufacturer's instructions (ElisaTech, Aurora, Colo.). […]
Peripheral blood monocytes were isolated from whole blood of healthy volunteers using protocols approved by the National Jewish Health Human Subjects Institutional Review Board. […] This procedure consistently yields monocyte purities of >80% as assessed by flow cytometry. […]

Mmp9 [2] = experiment: MMP9 activity by gelatin zymography in conditioned media of mouse peritoneal macrophages cultured on fibronectin; format: cell-based; conditions: for maximal inhibition of fibronectin-induced MMP9 production/activity: both wild type and Arhgef1-deficient macrophages, aspirin up to 20 mM, L-161,982, PTA2 1.56 or 6.25 μM, L-655,240 28 μM
Method: as §1
FIG. 6. The antioxidant mimetic MnTE-2PyP reduces MMP9 activity in macrophages. PEMs were cultured on fibronectin for 24 hours with 5% FCS, washed then treated with MnTE-2PyP at the indicated concentrations for an additional 24 hours without FCS. MMP9 activity was determined by zymography from supernatants of wild type (open) or Arhgef1−/− (filled) macrophages. Activity was normalized to activity generated from cells cultured on fibronectin without treatment.
FIG. 11. Cyclooxygenase activity but not EP4 receptor signaling is required for MMP9 production by murine macrophages cultured on fibronectin. A, representative MMP9 gelatin zymograms of conditioned media from peritoneal macrophages cultured on either plastic (ctl) or FN and treated with increasing concentrations of aspirin (1.25, 5.0, and 20 mM, respectively). Wild type (+/+) and Arhgef1^−/− (−/−) samples from separate zymograms are shown. Molecular weight standards and respective enzymatic activities of MMP9 and MMP2 are shown. B, quantitation of MMP9 activity as determined by densitometric analysis of zymograms in A. MMP 9 activity is shown in arbitrary units and represents n=6 for both wild type (open bars) and Arhgef1^−/− (black bars) samples. The results are compiled from two independent experiments. The data represent the means±S.E. *, p<0.05 Student's two-tailed t test compared with conditioned media from cells cultured on plastic. #, p<0.05 Student's two-tailed test comparing conditioned media from wild type cells to Arhgef1^−/− cells cultured under identical conditions. $, p<0.05 Student's two-tailed t test compared with conditioned media from cells cultured on fibronectin. C, quantitation of MMP9 activity in conditioned media from macrophages cultured on fibronectin in the presence of the EP4 antagonist L161,982 (10 μM). MMP9 activity was normalized to fibronectin response for each genotype. The results are compiled from two independent experiments with wild type (open bars, n=5) and Arhgef1^−/− (black bars, n=5) samples. The data represent the means±S.E. *, p<0.05 Student's two-tailed t test compared with conditioned media from cells cultured on plastic. #, p<0.05 Student's two-tailed t test compared with conditioned media from cells cultured on fibronectin.
FIG. 12. Thromboxane receptor signaling is necessary for fibronectin-induced MMP9 production by macrophages and is attenuated by Arhgef1. A, representative gelatin zymograms of conditioned media from macrophages cultured on plastic (ctl) or FN and treated with 1.56 or 6.25 μM of the thromboxane receptor antagonist PTA2. Wild type (+/+) and Arhgef1^−/− (−/−) samples from separate zymograms are shown. B, quantitation of MMP9 activity as determined by densitometric analysis of zymograms in A. The results are representative of two independent experiments. C, representative zymograms from conditioned media from macrophages cultured on plastic or fibronectin and treated with 28 μM of the thromboxane receptor antagonist L-655,240. D, quantitation of MMP9 activity as determined by densitometric analysis of zymograms in C. The results are compiled from two independent experiments with n=4 for both wild type (open bars) and Arhgef1^−/− (black bars) samples. […]

## CCCCC[C@@H](O)/C=C/[C@H]1C[C@H]2C[C@@H]([C@@H]1C/C=C\CCCC(=O)O)C2(C)C (relative stereo) [PTXA2, (18-(1alpha,2beta(Z),3alpha(1E,3S*),5alpha))-7-(3-(3-Hydroxy-1-octenyl)-6,6-dimethylbicyclo(3.1.1)hept-2-yl)-5-heptenoic acid]
MMP9 [1]; human peripheral blood monocytes, 1.6 μM PTXA2
  fibronectin-mediated MMP9 activity (effect in words): virtually ablated fibronectin-mediated MMP9 activity
Mmp9 [2]
  maximal inhibition of fibronectin-induced MMP9 production/activity: 80-85%
Mmp9 [2]; mouse macrophages, wild type and Arhgef1−/−, 1.6 μM PTXA2, 28 μM L-655,240
  fibronectin-mediated MMP9 activity (effect in words): virtually ablated fibronectin-mediated MMP9 activity

## CC(=O)Oc1ccccc1C(=O)O [aspirin]
MMP9 [1]; human monocytes on fibronectin, highest aspirin concentration 5 mM, 24 h
  reduction of MMP9 activity: 40-50%
Mmp9 [2]
  maximal inhibition of fibronectin-induced MMP9 production/activity: 70-75%
Mmp9 [2]; mouse peritoneal macrophages on fibronectin, highest aspirin concentration 5 mM, 24 h
  reduction of MMP9 activity: 40-50%
